Reference: US20240300943A1, “NOVEL SALTS OF HETEROCYCLIC COMPOUND AS PROTEIN KINASE INHIBITOR AND USES THEREOF” (HK INNO.N CORPORATION, priority 2021, published 2024)

What was measured:
[1] = test system: RBL-2H3 cells; assay: IL-4 secretion inhibitory activity in Basophil cells; assay type: cell-based; conditions: FIG. 8
Experimental: RBL-2H3 cells were diluted in 10% FBS EMEM medium and divided in a 24-well plate to reach 1×10^5 cells/well. The cells were incubated in a 37° C. incubator for 18 hours or longer.
The test material (Compound 1) was treated at each concentration (at a final concentration of 0, 0.1, 0.5 and 1 μM) under PMA (50 nmol/L) and A23187 (1 μmol/L) stimulation. The cells were incubated in a 37° C. incubator for 24 hours. Then, the reaction was terminated on ice, after the degree of IL-4 secretion in the culture supernatant was measured by IL-4 ELISA kit.

[2] = test system: JAK1, 3; assay: In vitro cell assay, JAK1, 3 (NK-92 cells, IL-2); assay type: cell-based; conditions: NK92, read-out: IC50, Cell Biology JAK1, 3
Experimental: In addition, NK-92 cell is a natural killer cell line, which grows in an IL-2-dependent way, and is derived from peripheral blood mononuclear cells, and thus is suitable for evaluating the activity of JAK1 and JAK3 by IL-2. Thus, in order to evaluate the activity of JAK1 and JAK3, NK-92 cells were prepared.
The test material was dissolved in DMSO, prepared at 10 mM, divided by 20 μL each, and stored at −20° C.
• EPO: 2000 U/0.5 mL of stock was divided by 50 μL each and stored under refrigeration. • IL-2: 200 μg/ml of stock was prepared, divided by 5 μL each, and stored, and then treated at 2 ng/ml. (IL-2 1 μg/ml=13000 U/ml) • IFN-alphaB2: […] of stock was diluted and used, and then treated to reach 30000 U/ml.
• UT-7/EPO cell assay: MEM-alpha (Gibco, cat #12561-056) was prepared to contain 5% FBS and 1% P/S before use. • NK-92 cell assay: A preparation was made to contain HBSS, 1% FBS and 1% P/S before use. • U2OS cell assay: A preparation was made to contain HBSS, 1% FBS and 1% P/S before use.
The cultured cells were centrifuged (1,000 rpm, 5 minutes) and washed with PBS. The size of cell lines and appropriate reaction concentration thereof were set and the cell lines were seeded in a 96-well plate at 1×10^5 to 10^6 cells/well (50 μL/well). […]

IC50 [2]: 163 nM
SMILES: C[C@@H]1CN(C(=O)CC#N)CC=C1c1cc(NC(=O)C2CC2)nc2[nH]ccc12 [Compound 1, (S)—N-(4-(1-(2-cyanoacetyl)-3-methyl-1,2,3,6-tetrahydropyridin-4-yl)-1H-pyrrolo[2,3-b]pyridin-6-yl)cyclopropanecarboxamide]
IL-4 concentration compared to the negative control group (vehicle) ([1]; 0.5 μM and 1 μM): remarkably reduced to almost ½ or more
IL-4 secretion ([1]; RBL-2H3 cells, PMA and A23187 stimulation, 24 hours): inhibits IL-4 secretion
